This is an account of results in EPA's ToxRefDB 2.

Series [1] deals with primate. The following applies: Sub-acute repeat dose toxicity, Oral, Gavage/Intubation, dose end: 30 day, group: systemic.
Series [2] deals with rat. The following applies: Sub-acute repeat dose toxicity; Oral; Gavage/Intubation; dose end: 10 day; group: systemic; systemic / hematology / erythrocyte (rbc) count differential / erythrocyte (rbc) + systemic / hematology / hematocrit (hct) / hematocrit (….
In series [3] the test system is rat. The settings on record: Sub-acute repeat dose toxicity, Oral, Gavage/Intubation, dose end: 30 day, group: systemic.
For series [4], the system named is primate. The following applies: Sub-acute repeat dose toxicity; Oral; Gavage/Intubation; dose end: 10 day; group: systemic; systemic / clinical chemistry / alanine aminotransferase (alt/sgpt) / alanine aminotransferase (alt/sgpt) + systemic / clinical chemistry / ….
For series [5], the system named is primate. The settings on record: Sub-acute repeat dose toxicity; Oral; Gavage/Intubation; dose end: 4 day; group: systemic; systemic / in life observation / clinical signs / ataxia + systemic / in life observation / clinical signs / emesis + systemic / in life ….
For series [6], the system named is mouse. The following applies: Carcinogenicity; b6c3f1; Oral; Feed; dose end: 80 week; group: systemic; systemic / pathology microscopic / liver / carcinoma.
The subject of series [7] is rat. The following applies: Carcinogenicity; other; Oral; Feed; dose end: 80 week; group: systemic; systemic / in life observation / body weight / body weight + systemic / in life observation / clinical signs / [other] + systemic / in life ….
Series [8] concerns mouse. The settings on record: Carcinogenicity; cd1; Oral; Feed; dose end: 80 week; group: systemic; systemic / pathology microscopic / liver / hypertrophy + systemic / pathology microscopic / liver / infiltration cellular + systemic / ….
Series [9] relates to rat. The following applies: Multigenerational reproductive toxicity study, sprague dawley, Oral, Feed, dose end: 2 generation.
The test system of series [10] is dog. The following applies: Chronic toxicity; beagle; Oral; Feed; dose end: 107 week; group: systemic; systemic / clinical chemistry / [other] / [other] + systemic / clinical chemistry / alanine aminotransferase (alt/sgpt) / alanine ….
For series [11], the system named is rat. The settings on record: Subchronic oral toxicity in rodents, other, Feed, dose end: 90 day, group: systemic, systemic / in life observation / body weight / body weight gain + systemic / organ weight / kidney / nos + systemic / organ weight / liver….
The test system of series [12] is dog. The following applies: Subchronic oral toxicity in nonrodent, beagle, Feed, dose end: 90 day, group: systemic, systemic / clinical chemistry / alanine aminotransferase (alt/sgpt) / alanine aminotransferase (alt/sgpt) + systemic / clinical chemistry / ….
In series [13] the test system is rat. The settings on record: Prenatal developmental toxicity study, wistar, Oral, Gavage/Intubation, dose end: 20 GD.
Series [14] concerns rat. The following applies: Combined chronic toxicity/carcinogenicity, wistar, Oral, Feed, dose end: 24 month, group: systemic.
Series [15] has as its system mouse. The following applies: Subchronic oral toxicity in rodents, b6c3f1, Gavage/Intubation, dose end: 13 week, group: systemic.
In series [16] the test system is mouse. The settings on record: Carcinogenicity, b6c3f1, Oral, Gavage/Intubation, dose end: 103 week, group: systemic.
Series [17] concerns rat. The following applies: Subchronic oral toxicity in rodents, fischer, Gavage/Intubation, dose end: 13 week, group: systemic, systemic / pathology gross / spleen / enlarged + systemic / pathology microscopic / kidney / hemosiderosis + systemic / pathology ….
Series [18] deals with mouse. The following applies: Sub-acute repeat dose toxicity, b6c3f1, Oral, Gavage/Intubation, dose end: 15 day, group: systemic.
For series [19], the system named is rat. The following applies: Sub-acute repeat dose toxicity, fischer, Oral, Gavage/Intubation, dose end: 14 day, group: systemic.
Series [20] relates to rat. The settings on record: Carcinogenicity, fischer, Oral, Gavage/Intubation, dose end: 103 week, group: systemic.
[21] abbreviates: systemic / clinical chemistry / cytochrome p450, nos / cytochrome p450, nos + systemic / hematology / blood clotting / blood clotting - ….
Setting [22] is: systemic / clinical chemistry / cholesterol / cholesterol + systemic / clinical chemistry / cytochrome p450, nos / cytochrome p450, nos + ….
Where [23] appears, read: systemic / clinical chemistry / urea nitrogen / urea nitrogen + systemic / hematology / neutrophils / neutrophils.
Setting [24] is: group: offspring, systemic / in life observation / body weight / offspring (pup) weight + systemic / in life observation / body weight / offspring (pup) ….
The mark [25] stands for this setting: group: parental, systemic / organ weight / kidney / absolute + systemic / organ weight / kidney / relative to body weight + systemic / organ weight / liver….
[26] abbreviates: group: developmental, developmental / developmental malformation / bone / short supernumerary.
Setting [27] is: group: developmental, developmental / developmental malformation / bone / short supernumerary + systemic / in life observation / body weight / fetal weight.
Where [28] appears, read: group: maternal, systemic / in life observation / body weight / body weight gain + systemic / in life observation / food consumption / food consumption.
The mark [29] stands for this setting: systemic / in life observation / body weight / body weight gain + systemic / pathology microscopic / brain / vacuolization + systemic / ….
Where [30] appears, read: systemic / pathology microscopic / spleen / hemosiderosis + systemic / pathology microscopic / uterus / adenocarcinoma.
The mark [31] stands for this setting: systemic / in life observation / body weight / body weight.
[32] abbreviates: systemic / pathology gross / spleen / enlarged + systemic / pathology microscopic / spleen / hematopoietic cell proliferation + systemic / ….
Setting [33] is: systemic / pathology microscopic / stomach / hyperplasia.
Setting [34] is: systemic / pathology microscopic / stomach / squamous cell papilloma + systemic / pathology microscopic / stomach / hyperplasia.
The mark [35] stands for this setting: systemic / pathology gross / spleen / enlarged.
Setting [36] is: systemic / pathology gross / spleen / enlarged + systemic / pathology microscopic / spleen / congestion + systemic / pathology microscopic….
Setting [37] is: systemic / pathology microscopic / liver / inflammation + systemic / pathology microscopic / spleen / hematopoietic cell proliferation + ….
Setting [38] is: systemic / pathology microscopic / spleen / hematopoietic cell proliferation + systemic / pathology microscopic / spleen / hemosiderosis.

Where only a bound is given, the exact number is not on record here.

On to `CC(C)(C)c1nnc2ccc(-c3ocnc3-c3cc(F)c(F)cc3F)cn12`, for which the lowest-observed-adverse-effect level (LOAEL) in the series with primate [1] (setting [21]), in the series with rat [2], in the series on rat [3] (setting [22]), with primate [4] and in the series on primate [5] was more than 100 mg/kg/day in each case. Besides, the NEL in the series with primate [1] (setting [21]) is 3 mg/kg/day; in the series with rat [2] it was less than 10 mg/kg/day; in the series with rat [3] (setting [23]) it was less than 3 mg/kg/day; with primate [4] it was less than 10 mg/kg/day; in the series on primate [5], less than 100 mg/kg/day. The NOAEL in the series with primate [1] (setting [21]), in the series on rat [2], in the series on rat [3] (setting [22]), with primate [4] and with primate [5] was not below 100 mg/kg/day throughout. Further, the LEL in the series with primate [1] (systemic / hematology / fibrinogen / fibrinogen) is 10 mg/kg/day; in the series with rat [2] it was 10 mg/kg/day; with rat [3] (setting [23]), 3 mg/kg/day; in the series with primate [4] it was 10 mg/kg/day; in the series with primate [5] it was 100 mg/kg/day.
As to `Nc1cc(Cl)cc(C(=O)O)c1Cl` [Chloramben], in the series with mouse [6], the LEL stood at 1500 mg/kg/day; the LOAEL (commonly the lowest dose or exposure tested at which an adverse effect was seen) is more than 3000 mg/kg/day; the NEL is less than 1500 mg/kg/day; the NOAEL – broadly, the highest tested level that showed no adverse finding – was not below 3000 mg/kg/day. Moreover, in the series on rat [7], the LEL came out at 1000 mg/kg/day, the LOAEL was more than 1000 mg/kg/day, the NEL came out at 500 mg/kg/day and the no observed adverse effect level (NOAEL) is not below 1000 mg/kg/day.
Regarding `Nc1c(Cl)cc([N+](=O)[O-])cc1Cl` [Dicloran], the LEL in the series with mouse [8] turned out to be 86.5 mg/kg/day; in the series on rat [9] (setting [24]), 87 mg/kg/day; with rat [9] (setting [25]), 87 mg/kg/day; with dog [10] it was 75 mg/kg/day; in the series with rat [11], 150 mg/kg/day; in the series on dog [12], 75 mg/kg/day. Moreover, the LEL was 50 mg/kg/day in the series on rat [13] (setting [26]), 50 mg/kg/day in the series with rat [13] (setting [28]) and 3.7 mg/kg/day in the series on rat [14] (setting [30]). Also, the LOAEL turned out to be 86.5 mg/kg/day with mouse [8]; 87 mg/kg/day in the series with rat [9] (setting [24]); 87 mg/kg/day with rat [9] (setting [25]); 75 mg/kg/day in the series on dog [10]; 150 mg/kg/day in the series with rat [11]; 75 mg/kg/day in the series on dog [12]. In addition, the figures for the LOAEL in the series with rat [13] (setting [27]), in the series on rat [13] (setting [28]) and with rat [14] (setting [29]) were 100 mg/kg/day, 50 mg/kg/day and 71 mg/kg/day, respectively. Further, the NEL in the series on mouse [8] came to 24.5 mg/kg/day; in the series with rat [9] (setting [24]), 16.9 mg/kg/day; in the series with rat [9] (group: parental, systemic / in life observation / clinical signs / discharge on cageboard) it was 16.9 mg/kg/day; in the series on dog [10], 2.5 mg/kg/day; in the series on rat [11], 5 mg/kg/day; in the series on dog [12], 2.5 mg/kg/day. The values for the NEL with rat [13] (setting [26]), in the series on rat [13] (setting [28]) and in the series with rat [14] (setting [30]) were less than 50 mg/kg/day, less than 50 mg/kg/day and less than 3.7 mg/kg/day, respectively. The NOAEL in the series on mouse [8] was determined as 24.5 mg/kg/day; with rat [9] (setting [24]) it was 16.9 mg/kg/day; in the series with rat [9] (setting [25]) it was 16.9 mg/kg/day; with dog [10] it was 2.5 mg/kg/day; with rat [11], 5 mg/kg/day; in the series on dog [12] it was 2.5 mg/kg/day. For the same molecule, the NOAEL in the series with rat [13] (setting [27]) was 50 mg/kg/day; with rat [13] (setting [28]) it was less than 50 mg/kg/day; in the series with rat [14] (setting [29]), 11.3 mg/kg/day.
Turning to `CN(C)c1ccccc1` [N,N-Dimethylaniline], the LEL is 31 mg/kg/day with mouse [15] (setting [31]); 15 mg/kg/day in the series on mouse [16] (setting [33]); 31 mg/kg/day in the series with rat [17]; 188 mg/kg/day with mouse [18] (setting [35]); 94 mg/kg/day with rat [19] (setting [35]); 3 mg/kg/day in the series on rat [20] (setting [38]). For the same molecule, the NEL is less than 31 mg/kg/day with mouse [15] (setting [31]); less than 15 mg/kg/day in the series with mouse [16] (setting [33]); less than 31 mg/kg/day in the series with rat [17]; 94 mg/kg/day in the series on mouse [18] (setting [36]); less than 94 mg/kg/day in the series with rat [19] (setting [35]); less than 3 mg/kg/day in the series with rat [20] (setting [38]). Further, the LOAEL is 62 mg/kg/day in the series with mouse [15] (setting [32]); more than 30 mg/kg/day with mouse [16] (setting [34]); 31 mg/kg/day with rat [17]; 375 mg/kg/day with mouse [18] (setting [36]); 375 mg/kg/day in the series on rat [19] (setting [32]); 30 mg/kg/day with rat [20] (setting [37]). Moreover, the NOAEL was 31 mg/kg/day with mouse [15] (setting [32]); not below 30 mg/kg/day in the series with mouse [16] (setting [34]); less than 31 mg/kg/day with rat [17]; 188 mg/kg/day in the series with mouse [18] (setting [36]); 188 mg/kg/day with rat [19] (setting [32]); 3 mg/kg/day with rat [20] (setting [37]).
